Assay results taken from ChEMBL document CHEMBL5226286, “The application of isatin-based multicomponent-reactions in the quest for new bioactive and druglike molecules” (Eur J Med Chem, 2021).
Converted amounts (≈) assume the structure as drawn. The source made the active and inactive calls. No cut-off for these calls is given here.

Key:
Escherichia coli [1] = assay: Antibacterial activity against Escherichia coli by disc diffusion method; format: functional
Pseudomonas aeruginosa [2] = assay: Antibacterial activity against multidrug resistant Pseudomonas aeruginosa 025; format: functional
Staphylococcus aureus [3] = assay: Antibacterial activity against Staphylococcus aureus by disc diffusion method; format: functional
Bacillus subtilis [4] = assay: Antibacterial activity against Bacillus subtilis by agar well diffusion method; format: functional
Pseudomonas aeruginosa [5] = assay: Antibacterial activity against multidrug resistant Pseudomonas aeruginosa 034; format: functional
Bacillus subtilis [6] = assay: Antibacterial activity against Bacillus subtilis ATCC 465; format: functional
Micrococcus luteus = assay: Antibacterial activity against Micrococcus luteus PTCC 1110; format: functional
Pseudomonas aeruginosa [7] = assay: Antibacterial activity against Pseudomonas aeruginosa ATCC 85327; format: functional
Bacillus pumilus = assay: Antibacterial activity against Bacillus pumilus PTCC 1114; format: functional
[8] = tested on: Staphylococcus epidermidis; assay: Antibacterial activity against Staphylococcus epidermidis ATCC 12228; format: functional
Streptococcus mutans = assay: Antibacterial activity against Streptococcus mutans PTCC 1601; format: functional
Staphylococcus aureus [9] = assay: Antibacterial activity against Staphylococcus aureus ATCC 25923; format: functional
Klebsiella pneumoniae = assay: Antibacterial activity against Klebsiella pneumoniae ATCC 29655; format: functional
Escherichia coli [10] = assay: Antimicrobial activity against Escherichia coli ATCC 25922; format: functional
Enterococcus faecalis = assay: Antibacterial activity against Enterococcus faecalis ATCC 29737; format: functional
HeLa [11] = assay: Cytotoxicity against human HeLa cells incubated for 48 hrs by MTT assay; format: functional, cell-based
DU-145 = assay: Cytotoxicity against human DU-145 cells incubated for 48 hrs by MTT assay; format: functional, cell-based; conditions: DU-145, 48 h
A549 [12] = assay: Cytotoxicity against human A549 cells incubated for 48 hrs by MTT assay; format: functional, cell-based; conditions: A549, 48 h
MCF7 = assay: Cytotoxicity against human MCF7 cells incubated for 48 hrs by MTT assay; format: functional, cell-based; conditions: MCF7, 48 h
Escherichia coli [13] = assay: Antibacterial activity against Escherichia coli assessed as zone of inhibition; format: functional
Staphylococcus aureus [14] = assay: Antibacterial activity against Staphylococcus aureus assessed as zone of inhibition; format: functional
[15] = tested on: Syncephalastrum racemosum; assay: Antifungal activity against Syncephalastrum racemosum RCMB 05922; format: functional
Streptococcus pneumoniae = assay: Antibacterial activity against Streptococcus pneumoniae incubated for 24 to 48 hrs by agar diffusion well method; format: functional; conditions: time 24-48 hrs
Candida albicans [16] = assay: Antifungal activity against Candida albicans RCMB 05036; format: functional
Aspergillus fumigatus [17] = assay: Antifungal activity against Aspergillus fumigatus RCMB 02568; format: functional
Escherichia coli [18] = assay: Antibacterial activity against Escherichia coli incubated for 24 to 48 hrs by agar diffusion well method; format: functional; conditions: time 24-48 hrs
Geotrichum candidum [19] = assay: Antifungal activity against Geotrichum candidum RCMB 05097; format: functional
Bacillus subtilis [20] = assay: Antibacterial activity against Bacillus subtilis incubated for 24 to 48 hrs by agar diffusion well method; format: functional; conditions: time 24-48 hrs
Pseudomonas aeruginosa [21] = assay: Antibacterial activity against Pseudomonas aeruginosa incubated for 24 to 48 hrs by agar diffusion well method; format: functional; conditions: time 24-48 hrs
Candida albicans [22] = assay: Antifungal activity against Candida albicans RCMB 05036 assessed as zone of inhibition; format: functional
Aspergillus flavus = assay: Antifungal activity against Aspergillus flavus; format: functional
Aspergillus fumigatus [23] = assay: Antifungal activity against Aspergillus fumigatus RCMB 02568 assessed as zone of inhibition; format: functional
Aspergillus niger = assay: Antifungal activity against Aspergillus niger; format: functional
Geotrichum candidum [24] = assay: Antifungal activity against Geotrichum candidum RCMB 05097 assessed as zone of inhibition; format: functional
[25] = tested on: Syncephalastrum racemosum; assay: Antifungal activity against Syncephalastrum racemosum RCMB 05922 assessed as zone of inhibition; format: functional
MDA-MB-231 = assay: cells; format: functional, cell-based; conditions: Homo sapiens
Description: Antiproliferative activity against human MDA-MB-231 cells

HeLa [26] = assay: Antiproliferative activity against human HeLa cells; format: functional, cell-based
A549 [27] = assay: Anticancer activity against human A549 cells by MTT assay; format: functional, cell-based
Candida albicans [28] = assay: Antifungal activity against Candida albicans; format: functional
Candida tropicalis = assay: Antifungal activity against Candida tropicalis; format: functional
Nakaseomyces glabratus = assay: Antifungal activity against Candida glabrata; format: functional
MDA-MB-435 = assay: Antiproliferative activity against human MDA-MB-435 cells; format: functional, cell-based
Staphylococcus aureus [29] = assay: microbe, parasite or virus in culture
Bacillus subtilis [30] = assay: Antibacterial activity against Bacillus subtilis; format: functional
[31] = Antioxidant activity assessed as DPPH radical scavenging activity at 1 mg/ml relative to control; format: functional
HepG2 = assay: cells; format: functional, cell-based; conditions: Homo sapiens
Description: Antiproliferative activity against human HepG2 cells

O=C(O)c1cn(C2CC2)c2cc(N3CCNCC3)c(F)cc2c1=O [CIPROFLOXACIN]
MIC (Escherichia coli [1]): 25 µg/mL (≈ 75.4 µM)
MIC (Pseudomonas aeruginosa [2]): 32 µg/mL (≈ 96.6 µM)
MIC (Staphylococcus aureus [3]): 50 µg/mL (≈ 151 µM)
MIC (Bacillus subtilis [4]): 6.25 µg/mL (≈ 18.9 µM)
MIC (Pseudomonas aeruginosa [5]): 32 µg/mL (≈ 96.6 µM)

O=C1c2c(Cl)cccc2NC2(C(=O)Nc3ccc([N+](=O)[O-])cc32)N1Nc1ccccc1 (stereo not drawn)
MIC (Bacillus subtilis [6]): < 2 µg/mL
MIC (Micrococcus luteus): 2 µg/mL (≈ 4.59 µM)
MIC (Pseudomonas aeruginosa [7]): 16 µg/mL (≈ 36.7 µM)
MIC (Bacillus pumilus): < 2 µg/mL
MIC [8]: 2 µg/mL (≈ 4.59 µM)
MIC (Streptococcus mutans): 8 µg/mL (≈ 18.4 µM)
MIC (Staphylococcus aureus [9]): 2 µg/mL (≈ 4.59 µM)
MIC (Klebsiella pneumoniae): 16 µg/mL (≈ 36.7 µM)
MIC (Escherichia coli [10]): < 2 µg/mL
MIC (Enterococcus faecalis): 8 µg/mL (≈ 18.4 µM)

O=C1OCC2=C1C1(Nc3ccc(Cl)cc3N2)C(=O)Nc2ccccc21 (stereo not drawn)
IC50 (HeLa [11]): 5400 nM
IC50 (DU-145): 1700 nM
IC50 (A549 [12]): 2900 nM
IC50 (MCF7): 9500 nM

CCOC1=Nc2ccc(Br)cc2/C1=C\C(=O)c1ccccc1
diameter of the inhibition zone (DIZ) (Escherichia coli [13]): 6 mm
diameter of the inhibition zone (DIZ) (Staphylococcus aureus [14]): 7 mm

CCOC(=O)N1C/C(=C\c2ccc([N+](=O)[O-])cc2)C(=O)[C@@]2(C1)[C@H](c1ccc([N+](=O)[O-])cc1)[C@H]1CCCN1[C@]21C(=O)Nc2ccccc21
MIC [15]: 0.49 µg/mL (≈ 0.768 µM)
MIC (Streptococcus pneumoniae): 1.95 µg/mL (≈ 3.06 µM)
MIC (Candida albicans [16]): inactive
MIC (Aspergillus fumigatus [17]): 1.95 µg/mL (≈ 3.06 µM)
MIC (Escherichia coli [18]): 15.6 µg/mL (≈ 24.5 µM)
MIC (Geotrichum candidum [19]): 0.12 µg/mL (≈ 0.188 µM)
MIC (Bacillus subtilis [20]): 0.06 µg/mL (≈ 0.0941 µM)
MIC (Pseudomonas aeruginosa [21]): inactive

OC(Cn1cncn1)(Cn1cncn1)c1ccc(F)cc1F [FLUCONAZOLE]
diameter of the inhibition zone (DIZ) (Candida albicans [22]): 28 mm
MIC (Aspergillus flavus): 20 µg/mL (≈ 65.3 µM)
diameter of the inhibition zone (DIZ) (Aspergillus fumigatus [23]): 25 mm
MIC (Aspergillus niger): 20 µg/mL (≈ 65.3 µM)
diameter of the inhibition zone (DIZ) (Geotrichum candidum [24]): 30 mm
diameter of the inhibition zone (DIZ) [25]: 24.1 mm

CCC(C)Cn1cc(CN2C(=O)C3(C(C#N)=C(N)Oc4c3ccc3[nH]c5ccccc5c43)c3ccccc32)nn1 (stereo not drawn)
IC50 (MDA-MB-231): 3800 nM
IC50 (HeLa [26]): 14900 nM

Cc1ccc([C@H]2[C@@]3(SC(=S)NC3=O)C3CCCN3[C@@]23C(=O)Nc2ccccc23)cc1 (stereo partly drawn)
diameter of the inhibition zone (DIZ) (Candida albicans [22]): 27 mm
diameter of the inhibition zone (DIZ) (Aspergillus fumigatus [23]): 18 mm
diameter of the inhibition zone (DIZ) (Geotrichum candidum [24]): 27 mm
diameter of the inhibition zone (DIZ) [25]: 19 mm

C#CCN1C(=O)[C@]2(c3ccccc31)N(C)C[C@@](C#N)(C(=O)c1c[nH]c3ccccc13)[C@@]21C(=O)Nc2ccccc21
IC50 (A549 [27]): 50000 nM

N#CC1=C(N)Oc2c(ccc3[nH]c4ccccc4c23)C12C(=O)N(Cc1cn(Cc3ccc([N+](=O)[O-])cc3)nn1)c1ccccc12 (stereo not drawn)
IC50 (MDA-MB-231): 51200 nM
IC50 (HeLa [26]): 6300 nM

Cc1ccc(C2C3CCCN3C3(C(=O)Nc4ccccc43)C2C(=O)c2ccc(-c3ccc(F)cc3F)cc2)cc1 (stereo not drawn)
MIC (Candida albicans [28]): 12.5 µg/mL (≈ 23.4 µM)
MIC (Candida tropicalis): 25 µg/mL (≈ 46.8 µM)
MIC (Nakaseomyces glabratus): 25 µg/mL (≈ 46.8 µM)

N#CC1=C(N)OC2=C(C(=O)c3ccccc32)C12C(=O)Nc1ccc(Br)cc12 (stereo not drawn)
IC50 (MDA-MB-435): 1800 nM

COc1cc([C@@H]2c3cc4c(cc3[C@@H](O[C@@H]3O[C@@H]5CO[C@@H](C)O[C@H]5[C@H](O)[C@H]3O)[C@H]3COC(=O)[C@H]23)OCO4)cc(OC)c1O [ETOPOSIDE]
IC50 (HeLa [11]): 1000 nM
IC50 (DU-145): 2100 nM
IC50 (A549 [12]): 2200 nM
IC50 (MCF7): 1600 nM

Cc1nn(-c2ccccc2)c2c1C1(C(=O)Nc3ccc(Br)cc31)c1c(C)nn(-c3ccccc3)c1O2
MIC (Staphylococcus aureus [29]): 64 µg/mL (≈ 119 µM)
MIC (Bacillus subtilis [30]): 256 µg/mL (≈ 475 µM)

N[C@@H](CCC(=O)N[C@@H](CS)C(=O)NCC(=O)O)C(=O)O
Activity [31]: 92%

O=C1C(=O)c2ccccc2C2=C1C1(C(=O)Nc3ccc(F)cc31)N1NN=NC1=N2 (stereo not drawn)
IC50 (HepG2): 2900 nM

CC(=O)O[C@H]1C(=O)[C@@]2(C)[C@H]([C@H](OC(=O)c3ccccc3)[C@]3(O)C[C@H](OC(=O)[C@H](O)[C@@H](NC(=O)c4ccccc4)c4ccccc4)C(C)=C1C3(C)C)[C@]1(OC(C)=O)CO[C@@H]1C[C@@H]2O [PACLITAXEL]
IC50 (MDA-MB-231): 100 nM
IC50 (HeLa [26]): 6 nM

CCOC1=Nc2ccc(Br)cc2/C1=C\C(=O)c1cccc2ccccc12
diameter of the inhibition zone (DIZ) (Escherichia coli [13]): 6 mm
diameter of the inhibition zone (DIZ) (Staphylococcus aureus [14]): 6 mm

C[C@H]1COc2c(N3CCN(C)CC3)c(F)cc3c(=O)c(C(=O)O)cn1c23.C[C@H]1COc2c(N3CCN(C)CC3)c(F)cc3c(=O)c(C(=O)O)cn1c23.O [LEVOFLOXACIN]
MIC (Pseudomonas aeruginosa [2]): > 64 µg/mL
MIC (Pseudomonas aeruginosa [5]): > 64 µg/mL

O=C(c1ccc(-c2ccc(F)cc2F)cc1)C1C(c2ccc(Cl)cc2)C2CCCN2C12C(=O)Nc1ccccc12 (stereo not drawn)
MIC (Candida albicans [28]): 12.5 µg/mL (≈ 22.5 µM)
MIC (Candida tropicalis): 25 µg/mL (≈ 45 µM)
MIC (Nakaseomyces glabratus): 25 µg/mL (≈ 45 µM)

CCOC(=O)N1C/C(=C\c2ccc(Cl)cc2)C(=O)[C@@]2(C1)[C@H](c1ccc(Cl)cc1)CN(C)[C@]21C(=O)Nc2ccccc21
MIC [15]: 1.95 µg/mL (≈ 3.3 µM)
MIC (Streptococcus pneumoniae): 0.12 µg/mL (≈ 0.203 µM)
MIC (Candida albicans [16]): 0.06 µg/mL (≈ 0.102 µM)
MIC (Aspergillus fumigatus [17]): 0.015 µg/mL (≈ 0.0254 µM)
MIC (Escherichia coli [18]): 1.95 µg/mL (≈ 3.3 µM)
MIC (Geotrichum candidum [19]): 0.015 µg/mL (≈ 0.0254 µM)
MIC (Bacillus subtilis [20]): 0.015 µg/mL (≈ 0.0254 µM)
MIC (Pseudomonas aeruginosa [21]): 15.6 µg/mL (≈ 26.5 µM)
